# In the supplement of paper PMC10307832:
# Key:
# Sulindac + Vorinostat = compound: CC1=C(CC(=O)O)c2cc(F)ccc2/C1=C\c1ccc([S+](C)[O-])cc1 [Sulindac] + O=C(CCCCCCC(=O)Nc1ccccc1)NO [Vorinostat] (partner 1 µM); experiment: relative viability (nuclei count vs DMSO), 5 days (fraction); higher = more cells survive
# Procedure, shortened: (§1)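 For relative viability, nuclei counts in treated wells were divided by those in vehicle wells. Lung cancer cell lines had been pin-tool dosed in 1536-well plates the day after seeding and cultured for 5 days, then fixed and stained in one step (final 0.05% Triton X-100, 1% formaldehyde, 1 ug/ml Hoechst) and imaged at 4×. Doses were one drug alone or a fixed anchor-drug dose plus five library-drug doses (not always all listed) in √10 steps, and values are duplicate-plate medians.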
# [1] = compound: CN[C@@H]1C[C@H]2O[C@@](C)([C@@H]1OC)n1c3ccccc3c3c4c(c5c6ccccc6n2c5c31)C(=O)NC4 [Staurosporine] + O=C(CCCCCCC(=O)Nc1ccccc1)NO [Vorinostat] (partner 1 µM); experiment: as above
# Procedure, shortened: as §1
Cell Line,relative viability (Sulindac + Vorinostat; first compound 0.08 µM),relative viability (Sulindac + Vorinostat; first compound 0.253 µM),relative viability (Sulindac + Vorinostat; first compound 0.8 µM),relative viability (Sulindac + Vorinostat; first compound 2.53 µM),relative viability (Sulindac + Vorinostat; first compound 8 µM),relative viability ([1]; first compound 0.005 µM),relative viability ([1]; first compound 0.05 µM),relative viability ([1]; first compound 0.1581 µM),relative viability ([1]; first compound 0.5 µM),relative viability ([1]; first compound 0.01581 µM)
201T,1.13,0.993,0.84,0.944,0.999,0.935,0.699,0.354,0.245,–
A-427,0.829,0.84,0.953,0.84,0.995,0.572,0.43,0.161,0.152,0.333
ABC-1,1.01,1.27,1.14,0.74,1.09,0.667,0.454,0.147,0.117,0.411
BEN,0.576,0.57,0.539,0.614,0.617,0.879,0.506,0.319,0.264,0.885
CAL-12T,0.783,0.858,0.671,0.821,1.07,0.415,0.165,0.129,0.112,0.231
COR-L23,0.453,0.471,0.399,0.499,0.561,0.159,0.0727,0.0709,0.0639,0.147
COR-L 105,0.95,0.982,0.856,0.77,0.967,0.69,0.228,0.333,0.224,0.289
ChaGo-K-1,0.874,0.822,0.575,0.755,0.907,0.791,0.359,0.147,0.144,–
EKVX,0.636,0.635,–,0.652,0.771,0.597,0.19,0.248,0.181,0.236
EMC-BAC-2,0.559,0.405,0.367,0.426,0.528,0.103,0.14,0.166,0.266,–
EPLC-272H,0.465,0.341,0.68,0.339,0.424,0.216,0.0826,0.0904,0.0549,0.141
H3255,0.765,0.723,0.661,0.695,0.819,0.276,0.384,0.48,0.133,0.219
HARA,0.474,0.675,0.425,0.512,0.461,0.511,0.307,0.302,0.195,0.114
HCC-15,0.94,0.885,0.738,0.835,0.975,0.811,0.485,0.28,0.213,–
HCC-44,1.14,1.1,1.14,1.1,1.1,1.1,0.517,0.27,0.2,–
HCC-78,0.363,0.415,0.433,0.455,0.462,0.475,0.388,0.367,0.279,0.377
HCC-366,0.365,0.333,–,0.351,0.416,0.331,0.0353,0.0261,0.0187,–
HCC-827,0.908,0.935,0.743,0.805,0.88,0.866,0.384,0.174,0.183,0.772
HOP-62,0.826,0.88,0.526,0.598,0.796,0.168,0.1,0.0731,0.0573,0.0742
IA-LM,1.07,1.21,–,0.913,0.981,0.732,0.0781,0.0987,0.105,0.312
LC-2-ad,0.833,0.843,0.669,0.693,0.821,0.635,0.217,0.13,0.0772,0.158
LCLC-97TM1,1.01,0.86,0.453,0.729,0.94,0.334,0.205,0.113,0.0631,0.0752
LCLC-103H,0.872,0.773,0.729,0.72,0.799,0.545,0.251,0.211,0.198,0.16

Cell Line,relative viability (Sulindac + Vorinostat; first compound 0.08 µM),relative viability (Sulindac + Vorinostat; first compound 0.253 µM),relative viability (Sulindac + Vorinostat; first compound 0.8 µM),relative viability (Sulindac + Vorinostat; first compound 2.53 µM),relative viability (Sulindac + Vorinostat; first compound 8 µM),relative viability ([1]; first compound 0.005 µM),relative viability ([1]; first compound 0.05 µM),relative viability ([1]; first compound 0.1581 µM),relative viability ([1]; first compound 0.5 µM),relative viability ([1]; first compound 0.01581 µM)
LK-2,0.292,0.258,0.234,0.289,0.228,0.19,0.246,0.0977,0.0667,0.0826
LOU-NH91,0.965,0.97,0.716,0.952,1.1,0.859,0.61,0.267,0.294,0.405
LU99A,0.499,0.465,0.454,0.428,0.551,0.452,0.173,0.128,0.107,0.16
LXF-289,0.867,0.797,0.636,0.83,0.797,0.73,0.29,0.0781,0.0815,0.249
NCI-H23,0.577,0.684,0.607,0.38,0.702,0.506,0.0962,0.143,0.101,0.0921
NCI-H322M,0.859,0.914,0.882,0.916,0.863,0.581,0.451,0.405,0.398,0.424
NCI-H358,0.842,0.722,0.601,0.669,0.897,–,0.0628,0.0625,0.0709,0.165
NCI-H441,1.02,0.936,0.599,0.782,0.981,0.458,0.232,0.144,0.114,0.327
NCI-H460,1.35,0.614,0.623,0.994,0.795,–,0.0234,0.0138,0.0076,0.179
NCI-H520,0.897,0.914,0.686,0.682,0.778,0.726,0.384,0.191,0.148,0.498
NCI-H522,0.673,0.829,0.747,0.906,0.964,0.856,0.75,0.397,0.484,0.452
NCI-H596,0.589,0.606,–,0.578,0.612,0.59,0.258,0.192,0.126,0.424
NCI-H647,0.604,0.952,0.409,0.628,0.549,0.247,0.0686,0.0506,0.0527,0.117
NCI-H650,0.506,0.429,0.334,0.379,0.579,0.32,0.234,0.181,0.151,0.162
NCI-H661,0.936,0.812,0.693,0.814,0.852,0.854,0.523,0.239,0.179,0.695
NCI-H727,1.35,1.21,0.998,1.18,1.24,1.36,0.453,0.36,0.322,0.831
NCI-H838,0.736,0.777,0.762,0.726,0.713,0.36,0.142,0.171,–,0.217
NCI-H1355,0.586,0.721,0.488,0.619,0.723,0.597,0.235,0.138,0.111,0.227
NCI-H1395,0.662,0.832,0.641,0.682,0.959,0.447,0.288,0.299,0.228,0.264
NCI-H1437,0.951,0.872,0.749,0.837,0.876,0.577,0.302,0.235,0.169,0.469
NCI-H1648,0.44,0.318,–,0.402,0.512,0.517,0.269,0.246,0.271,0.167
NCI-H1650,0.586,0.54,0.605,0.486,0.557,0.379,0.242,0.195,0.0786,0.414
NCI-H1651,0.623,0.57,0.486,0.577,0.593,0.609,0.402,0.122,0.116,0.537

Cell Line,relative viability (Sulindac + Vorinostat; first compound 0.08 µM),relative viability (Sulindac + Vorinostat; first compound 0.253 µM),relative viability (Sulindac + Vorinostat; first compound 0.8 µM),relative viability (Sulindac + Vorinostat; first compound 2.53 µM),relative viability (Sulindac + Vorinostat; first compound 8 µM),relative viability ([1]; first compound 0.005 µM),relative viability ([1]; first compound 0.05 µM),relative viability ([1]; first compound 0.1581 µM),relative viability ([1]; first compound 0.5 µM),relative viability ([1]; first compound 0.01581 µM)
NCI-H1666,0.981,1.06,0.867,0.891,1.1,0.938,0.801,0.593,0.446,0.824
NCI-H1734,0.844,0.826,0.664,0.78,1.05,0.751,–,0.117,0.107,0.236
NCI-H1755,0.751,0.772,0.754,0.77,0.753,0.555,0.223,0.189,0.218,0.477
NCI-H1793,0.726,0.716,–,0.637,0.68,0.635,0.164,0.11,0.0792,–
NCI-H1915,0.555,0.577,0.508,0.539,0.574,0.452,0.148,0.0885,0.0702,0.178
NCI-H1944,0.604,0.62,0.506,0.574,0.571,0.469,0.282,0.12,0.118,0.267
NCI-H1975,0.804,0.737,0.634,0.738,0.77,0.297,0.218,0.146,0.105,0.232
NCI-H1993,0.861,0.668,0.663,0.779,0.764,0.588,0.475,0.344,0.232,0.275
NCI-H2009,0.84,0.84,0.748,0.649,0.81,0.576,0.166,0.109,0.0558,0.185
NCI-H2023,0.945,0.879,0.582,0.652,0.685,0.313,0.0786,0.0748,0.0408,0.14
NCI-H2085,0.728,0.814,0.77,0.652,0.818,0.58,0.407,0.229,0.183,0.296
NCI-H2087,1.02,0.622,0.561,0.662,0.722,0.628,0.354,0.0753,0.0552,0.407
NCI-H2126,0.902,0.79,0.721,0.715,0.839,0.784,0.426,0.233,–,0.201
NCI-H2170,0.937,0.741,0.69,0.833,0.924,0.875,0.488,0.0663,0.0848,–
NCI-H2228,0.588,0.831,0.497,0.981,0.865,0.449,0.126,0.0779,0.0804,0.188
NCI-H2342,0.791,0.774,0.619,0.669,0.791,0.987,0.444,0.34,0.3,0.74
NCI-H2347,0.668,0.702,0.46,0.713,0.593,0.409,0.274,0.264,0.228,0.378
NCI-H2405,1.08,1.04,0.923,0.971,1.28,0.199,0.131,0.0894,0.0973,0.147
NCI-H3122,0.98,0.752,0.762,0.964,1.13,1.04,0.549,–,0.131,–
PC-3 [JPC-3],0.839,0.786,0.647,0.778,0.967,0.351,0.396,0.297,0.376,0.306
PC-14,0.873,0.9,0.629,0.645,0.855,0.267,0.0757,0.047,0.0287,0.116
